In article PMC8474115 (Journal of Medicinal Chemistry, 2021):
Where a name gives a salt, the structure may show the parent alone. Read-outs that look alike come from different tables or passages of the source.

Legend:
Serotonin 5-HT2C = biological target: T1, Serotonin 5-HT2C (Homo sapiens, UniProt P28335); experiment: Eurofins SafetyScreen panel; format: binding
T1 construct: Eurofins (contract assay)
T1 sequence (P28335 33-458): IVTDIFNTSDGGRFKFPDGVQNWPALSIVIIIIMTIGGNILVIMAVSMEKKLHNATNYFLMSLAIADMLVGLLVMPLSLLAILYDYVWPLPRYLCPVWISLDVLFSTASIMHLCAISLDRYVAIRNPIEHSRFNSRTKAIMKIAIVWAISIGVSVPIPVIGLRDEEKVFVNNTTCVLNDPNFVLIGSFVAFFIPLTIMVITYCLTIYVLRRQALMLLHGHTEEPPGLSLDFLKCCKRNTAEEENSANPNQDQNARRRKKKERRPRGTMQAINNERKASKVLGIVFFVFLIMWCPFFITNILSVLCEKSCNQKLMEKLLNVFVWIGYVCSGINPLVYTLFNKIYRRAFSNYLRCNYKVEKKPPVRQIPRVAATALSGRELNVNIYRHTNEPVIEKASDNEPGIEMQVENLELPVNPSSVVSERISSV

Serotonin 5-HT5A = biological target: T2, Serotonin 5-HT5A (Homo sapiens, UniProt P47898); experiment: Eurofins SafetyScreen panel; format: binding
T2 construct: Eurofins (contract assay) 272100

[1] = read-out: %inh, 10 μM, additional batch

T2 sequence (P47898 whole entry): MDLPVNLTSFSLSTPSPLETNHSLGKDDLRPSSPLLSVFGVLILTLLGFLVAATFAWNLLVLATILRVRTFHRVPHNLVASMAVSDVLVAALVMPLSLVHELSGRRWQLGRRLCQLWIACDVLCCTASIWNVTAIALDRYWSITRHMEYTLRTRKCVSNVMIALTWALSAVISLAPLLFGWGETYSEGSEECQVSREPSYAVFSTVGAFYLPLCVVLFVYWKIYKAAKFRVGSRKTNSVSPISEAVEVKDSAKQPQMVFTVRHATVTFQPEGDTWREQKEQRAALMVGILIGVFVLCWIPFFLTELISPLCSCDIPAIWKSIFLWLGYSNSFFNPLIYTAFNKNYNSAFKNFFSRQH

With `O=S(=O)(c1cccc(F)c1)n1ccc2c(N3CCNCC3)nc3ccccc3c21` [FPPQ, 1-[(3-Fluorophenyl)sulfonyl]-4-(piperazin-1-yl)-1H-pyrrolo[3,2-c]quinoline dihydrochloride] the IC50 (Serotonin 5-HT2C) was 1580 nM, the Ki (Serotonin 5-HT2C) was 830 nM and the inhibition at 0.01 µM (Serotonin 5-HT2C; read-out: %inh, 10 nM, additional batch) was -5%. The inhibition at 0.1 µM (Serotonin 5-HT2C; read-out: %inh, 0.1 μM) was -6%, the inhibition at 1 µM (Serotonin 5-HT2C; read-out: %inh, 1 μM) was 32% and the inhibition at 10 µM (Serotonin 5-HT2C; read-out: %inh, 10 μM) was 94%. It also gave an inhibition at 10 µM (Serotonin 5-HT2C; [1]) of 93%, an IC50 (Serotonin 5-HT5A) of 5580 nM and an inhibition at 0.1 µM (Serotonin 5-HT5A; read-out: %inh, 0.1 μM) of 1%. For the same compound, the inhibition at 10 µM (Serotonin 5-HT5A; read-out: %inh, 10 μM) was 64%, the inhibition at 10 µM (Serotonin 5-HT5A; [1]) was 61% and the inhibition at 100 µM (Serotonin 5-HT5A; read-out: %inh, 100 μM) was 98%.
